This note sets out measurements from patent EP1379634B1 (THE UNIVERSITY OF GEORGIA RESEARCH FOUNDATION, INC., priority 2001, dated 2002).

In assay [1] the test system is T. solium (cysteine). In words: Selectivity test (Steps VI and IX), T. solium cysteine protease. It counts as biochemical, Taenia solium. The method, then:
In order to perform the assay, the vehicle (for Step VI) or inhibitor (for Step IX) were incubated with the appropriate substrate in the correct assay buffer and allowed to equilibrate. Subsequently, the protease was added, and the assay was allowed to incubate for an appropriate time. The concentrations used in this experiment were as follows: Vehicle was set up at 4 X 10^-5 M in final assay buffer; Inhibitor was set up at 3 X 10^-10 M in the final assay buffer. Preferably the dosages employed should be the minimal amount of vehicle or inhibitor necessary to induce inhibition. […] Substrates were set up based upon the preferred substrate for cleavage of the particular enzyme.
Positive controls were set up similarly as described for test controls, except that a solvent blank was added in substitution for the inhibitor or vehicle (in a volume equal to the volume of inhibitor or vehicle addition). All of the inhibitors and vehicles could be dissolved in dimethylsulfoxide (DMSO), and therefore, this was the solvent of choice. Negative controls were set up by adding the inhibitor or vehicle and the preferred substrates in a tube without the protease. All potential non-proteolytic liberation of AFC was therefore controlled for in this tube.
All controls were set up in triplicate, and experiments were repeated a minimum of five times.
Percent inhibition was calculated as: %Inhibition = ((AFC positive for "SI"−AFC negative for "SI")−(AFC test−AFC negative for "SI"))/(AFC positive for "SI"−AFC negative for "SI") × 100 [formula]
In this preliminary test, we employed the following human-derived enzymes (with indicated mechanistic class in parentheses): Cathepsin B (cysteine), Cathepsin L (cysteine), Cathepsin H (cysteine), Cathepsin D (aspartic), Trypsin (serine), the purified Taenia solium cysteine protease, and the Taenia solium crude mix. Cathepsin B was prepared in an assay buffer of 10 mM L-cysteine in 0.4 M Citrate buffer, pH 6.1, using Z-ARR-AFC as the cleavage substrate. Cathepsin L was prepared in an assay buffer of 10 mM L-cysteine in 0.4 M Citrate buffer, pH 5.5, using Z-FR-AFC as the cleavage substrate. Cathepsin H was prepared in an assay buffer of 10 mM L-cysteine in 0.15 M PBS buffer, pH 6.8, using L-R-AFC as the cleavage substrate. Cathepsin D was prepared in an assay buffer of 0.15 M PBS, pH 7.1, using Z-RGFFP-AFC as the cleavage substrate. Trypsin was prepared in an assay buffer of 0.15 M PBS, pH 8.0, supplemented with 100 mM CaCl2 and with Z-R-AFC as the cleavage substrate. Enzyme was incubated so that it was at least 50 times less than the concentration of substrate in order to insure saturating conditions.

The subject of assay [2] is Taenia solium crude mix. In words: Competitor assay of vehicles against high Vmax substrate cocktails (Step III), crude mix. It counts as biochemical. The text has this: Step III for a crude mix proceeds as it would for a purified protease, except that Vm is used instead of kcat.
One of the most intriguing findings in this experiment was that a highly similar inhibition pattern for the competitor assay resulted when the crude mix was employed as the source of the target protease. Although there were some variations in the effects of inhibitor dilution, the most highly ranked vehicles remained inhibitory consistently in comparison to the profile with the target protease. The relative profile and composition of the top tier of vehicles was identical. Z-LLL-AFC, Z-LLY-AFC, Mu-LY-AFC, Boc-VPR-AFC, Z-SY-AFC, Z-RR-AFC, Z-FLF-AFC, and Z-LGR-AFC consistently emerged as the top eight vehicles (Fig. 5b), respectively, based upon their V values (Table 2). […] It was notable that the three vehicles had very similar V values. […] As was mentioned, this vehicle along with Z-LLL-AFC and Z-LLY-AFC, were consistently the most inhibitory vehicles. The V values of the most inhibitory vehicle series are shown below in Table 2. Again, a clear break between the first and second tier vehicles is discernible for the V value. Table 2. Vehicles and V value rankings.

In assay [3] the test system is purified Taenia solium cysteine protease. The assay can be described thus: Substrate cleavage screen of AFC-linked peptides (Step II), purified protease. The conditions noted are these: 0.4 M Citrate, pH 4.9, 0.01 M cysteine, 18 h, 37 °C. Type of assay: biochemical. The method, then:
In this step, the most efficacious substrate for detection of the cysteine protease (high Kcat substrate) was determined in vitro along with those substrates which were not well cleaved (low kcat substrates). From this point forward, the following conditions refer to all assays: "assay buffer" refers to 0.4 M Citrate, pH 4.9 (the pH optima of the protease). Incubation time was 18 hours at 37°C. These conditions were determined by our preliminary data to be best for kinetic evaluation of the protease. […] The experiments were conducted in 6X50 […] Borosilicate mini-culture tubes (Fisher Scientific), and a fluorometer (Turner) was employed for detection of AFC cleavage.
Since the full 8,420 amino acid possibilities for cleavage were not available, representative substrates were employed. […] In order to choose this subset, representative amino acids (i.e., selected from the categories of acidic, basic, nonpolar, uncharged) were chosen so as to create as many categories of motifs as feasible for the P3-P1 positions with a set of 67 small peptides (see lists at Fig. 4a and Fig. 4b). The target cysteine protease from Taenia solium was isolated using the purification methods described previously in the patent WO 00/63350.
Approximately 1 ug (or a proteolytically detectable amount) of the purified target cysteine protease was incubated individually, with 1 ug of each of the available substrates in 500 uL of assay buffer. During this setup, the substrate was pre-incubated in the assay buffer for a short period of time (20 minutes) in order to reach an equilibrated status before the addition of the protease. Cleavage assessments were based upon the property of the protease to cleave synthetic peptide substrates linked at the C-terminus to 7-Amino-4-Trifluoromethyl Coumarin (AFC) as previously described. AFC linked tripeptides, dipeptides, and monopeptides, (with a variety of permutations at P3-P1) were available from Enzyme Systems Products (Livermore, CA), and were used as the source of the subset. Following incubation of enzyme preparations overnight (18 h, 37 °C) with peptide in assay buffer (Citrate, pH 4.9, supplemented with 0.01 M cysteine), free AFC concentrations were measured fluorometrically (excitation 405 nm, emission 505 nm). The proteolytic cleavage released the AFC group, which was measurable as a free molecule by a standard fluorometer and converted into molar quantities, based upon a previously established standard curve. The simplicity of AFC detection by the fluorometer was a key factor which expedited and simplified the procedures.
In the assay, 1 ug of the purified Taenia cysteine protease was added to a saturating amount of Z-Phe-Arg-AFC (4X10^-5 M) in assay buffer. The experiment was conducted in triplicate and repeated at least 5 times until we were certain that variability in AFC cleavage was not statistically significant.
Vmax for the cleavage of substrates by the purified target protease and Vmax for substrates cleaved by the crude mix protease were each calculated using conventional kinetic modeling calculations already described in the art.

Residues, ends and D or L forms follow the SMILES beside them. *: point of attachment. AFC = O=c1cc(C(F)(F)F)c2ccc(N*)cc2o1; Cbz = O=C(OCc1ccccc1)*; CH2F = FC*

As for `CC(C)C[C@H](NC(=O)OCc1ccccc1)C(=O)N[C@@H](CC(C)C)C(=O)N[C@@H](CC(C)C)C(=O)Nc1ccc2c(C(F)(F)F)cc(=O)oc2c1` [Z-LLL-AFC, Z-Leu-Leu-Leu-AFC] (Cbz-Leu-Leu-Leu-{AFC}), the “% inhibition” value in assay [1] (vehicle 4 X 10^-5 M) is recorded as 68%. In assay [2], the Tier is recorded as 1 (The first tier was composed of those vehicles that produced inhibition greater than 50% when in the presence of the 1.4% cocktail). The “cleavage of AFC substrate (Vmax)” value in assay [3] was “noncleavable”.

Consider `CC(C)C[C@H](NC(=O)OCc1ccccc1)C(=O)N[C@@H](CC(C)C)C(=O)N[C@@H](Cc1ccc(O)cc1)C(=O)CF` [Z-LLY-FMK, Z-Leu-Leu-Tyr-FMK] (Cbz-Leu-Leu-Tyr-CH2F), for which the “% inhibition” value in assay [1] (inhibitor 3 X 10^-10 M) amounted to 62%.

Mu-Leu-Tyr-AFC [Mu-LY-AFC]: the “% inhibition” value in assay [1] (vehicle 4 X 10^-5 M) is reported as 75%. In assay [2], the Tier is 1 (The first tier was composed of those vehicles that produced inhibition greater than 50% when in the presence of the 1.4% cocktail). The entries for the “cleavage of AFC substrate (Vmax)” value in assay [3] and in assay [3] (listed as M-LY-AFC) were “not cleaved” and “noncleavable”, respectively.

For the compound `CC(C)C[C@H](NC(=O)OCc1ccccc1)C(=O)N[C@@H](CC(C)C)C(=O)N[C@@H](Cc1ccc(O)cc1)C(=O)Nc1ccc2c(C(F)(F)F)cc(=O)oc2c1` [Z-LLY-AFC, Z-Leu-Leu-Tyr-AFC] (Cbz-Leu-Leu-Tyr-{AFC}), in assay [1] (vehicle 4 X 10^-5 M), the “% inhibition” value came to 70%. Besides, in assay [2], the Tier is reported as 1 (The first tier was composed of those vehicles that produced inhibition greater than 50% when in the presence of the 1.4% cocktail). In addition, the “cleavage of AFC substrate (Vmax)” value in assay [3] is listed as “noncleavable”.

As a reminder, the % inhibition is how much of the control response was suppressed. A higher % inhibition goes with a strong effect.
